Values quoted from earlier work in patent US8524697B2, “C20-C21 substituted glucocorticoid receptor agonists” (Merck Sharp & Dohme Corp., priority 2007, dated 2013).

Biological target: SYK kinase (Homo sapiens, UniProt P43405)
Conditions: symptoms associated with chronic nasal congestion

Oc1cccc(Nc2ncc(F)c(Nc3cccc(O)c3)n2)c1 [Example R112]
absolute difference over placebo: 9%
improvement from baseline measurements (prior to drug initiation): up to 38%
relative improvement over placebo: greater than 20%
